Where a name gives a salt, the structure may show the parent alone.
Key:
[1] = acute toxicity (LD50 i.v. in the mouse); details: in vivo, iv
[2] = tested on: Staphylococcus aureus 887 (Penicillin-sensitive); test: antimicrobial activity, CD50 in the mouse upon subcutaneous injection, Staphylococcus aureus 887; format: in vivo
Excerpt: (§1) The results represent CD50 values in the mouse upon subcutaneous injection. In the table, compound A is (7R)-3- [[(1,4,5,6-tetrahydro-4-ethyl-5,6-dioxo-as-triazin-3-yl)-thio]methyl]-7-[2-(5-oxo-1,2,3-oxadiazolidin-3-yl)-acetamido]-3-cephem-4-carboxylic acid sodium salt and compound B is (7R)-3- [[(1,4,5,6-tetrahydro-4-ethyl-5,6-dioxo-as-triazin-3-yl)-thio]methyl]-7-[2(1-H-tetrazol-1-yl)-acetamido]-3-cephem-4-carboxylic acid sodium salt.

[3] = tested on: Staphylococcus aureus Schoch (Penicillin-sensitive); test: antimicrobial activity, CD50 in the mouse upon subcutaneous injection, Staphylococcus aureus Schoch; format: in vivo
Excerpt: as §1

Escherichia coli 1346 = test: antimicrobial activity, CD50 in the mouse upon subcutaneous injection, Escherichia coli 1346; format: in vivo
Excerpt: as §1

Row | SMILES | LD50 ([1]; i.v. in the mouse, acute toxicity) [mg/kg] | CD50 [2] [mg/kg] | CD50 [3] [mg/kg] | CD50 (Escherichia coli 1346) [mg/kg] | LD50 ([1]; mouse) [mg/kg]
1 | CCn1c(SCC2=C(C(=O)O)N3C(=O)[C@@H](NC(=O)C[n+]4cc([O-])on4)[C@H]3SC2)n[nH]c(=O)c1=O [A, sodium salt] | 2000 to 4000 | 5.5 | 0.25 | 0.38 | 
2 | CCn1c(SCC2=C(C(=O)O)N3C(=O)[C@@H](NC(=O)Cn4cnnn4)[C@H]3SC2)n[nH]c(=O)c1=O [B, (7R)-3-[[(1,4,5,6-tetrahydro-4-ethyl-5,6-dioxo-as-triazin-3-yl)-thio]methyl]-7-[2(1-H-tetrazol-1-yl)-acetamido]-3-cephem-4-carboxylic acid sodium salt] |  | 3.2 | 0.6 | 0.9 | 1000 to 2000

From patent publication US4091211A, “Cephalosporins” (Hoffmann-La Roche Inc., priority 1974, dated 1978)
